Data as given in patent US11186566B2, “Modulator of cystic fibrosis transmembrane conductance regulator, pharmaceutical compositions, methods of treatment, and process for making the modulator” (Vertex Pharmaceuticals Incorporated, priority 2016, dated 2021).
Where two headings read alike, the source gives them in different places.

Columns and labels:
[1] = molecular target: F508del-CFTR (Homo sapiens (Human), UniProt P13569, DEL508-508); assay: Membrane potential optical (fluorescent voltage sensing dye, FLIPR III) HTS assay for F508del-CFTR modulators; assay type: cell-based
Text: Membrane Potential Optical Methods for Assaying Properties of F508del-CFTR Modulators
The assay utilizes fluorescent voltage sensing dyes to measure changes in membrane potential using a fluorescent plate reader (e.g., FLIPR III, Molecular Devices, Inc.) as a readout for increase in functional F508del in NIH 3T3 cells.
5A-A1. Identification of F508Del-CFTR Modulators
To identify modulators of F508del, a fluorescence based HTS assay format was developed. This HTS assay utilizes fluorescent voltage sensing dyes to measure changes in membrane potential on the FLIPR III as a measurement for increase in gating (conductance) of F508del NIH 3T3 cells.
(in mM) NaCl 160, KCl 4.5, CaCl2 2, MgCl2 1, HEPES 10, pH 7.4 with NaOH, Glucose 10.
Chloride salts in Bath Solution #1 (above) are substituted with gluconate salts.
NIH3T3 mouse fibroblasts stably expressing F508del are used for optical measurements of membrane potential. The cells are maintained at 37° C. in 5% CO2 and 90% humidity in Dulbecco's modified Eagle's medium supplemented with 2 mM glutamine, 10% fetal bovine serum, 1×NEAA, β-ME, 1×pen/strep, and 25 mM HEPES in 175 cm^2 culture flasks. For all optical assays, the cells were seeded at 12,000 cells/well in 384-well matrigel-coated plates and cultured for 18-24 hrs at 37° C. for the potentiator assay. For the correction assays, the cells are cultured at 37° C. with and without compounds for 18-24 hours.

[2] = molecular target: human PXR (Homo sapiens (Human), UniProt O75469); assay: PXR assay (PXR mediated CYP3A4 induction, DPX-2 cell line); assay type: cell-based; details: DPX-2 cells, 48 hours, 0.1 to 60 μM
Protocol: 5D. Experimental Protocol for PXR Assay
The propensity for PXR mediated CYP3A4 induction is assessed using the DPX-2 cell line in vitro. This cell line, which has been licensed from Puracyp Inc. was derived from HepG2 cells and has been stably transfected with genes encoding human PXR as well as a modified luciferase reporter linked to the CYP3A4 promoter region and related distal and proximal enhancers.
The assay is run in 384 well format and each test article is administered in 11 doses ranging from 0.1 to 60 μM. On day 1, DPX-2 cells which have previously been expanded in-house and cryopreserved are thawed and seeded in tissue culture plates. The following day, media is changed and cells are cultured in media containing test article, vehicle control or the positive control compound, the clinically validated CYP3A4 inducer rifampicin. Cells are cultured in the presence of test article for 48 hours and then cell viability is assessed using fluorescence based assay (Cell Titer-Fluor, Promega) with an EnVision Plate Reader (PerkinElmer). Subsequently, CYP3A4 transactivation, which is proportional to luciferase activity, is measured by reading luminescense using the Promega One-Glo reagent system using the same plate reader.
Data processing within the Genedata software package allows reporting of max fold induction compared to vehicle control, an EC50 value for CYP3A4 inducers and an 11 point-dose response curve.

[3] = F508del NIH 3T3 cells, assay 5A-A1, read-out: CFTRdF508 EC50
[4] = Table 9, read-out: CFTR dF508 EC50

human PXR, sequence (O75469 whole entry): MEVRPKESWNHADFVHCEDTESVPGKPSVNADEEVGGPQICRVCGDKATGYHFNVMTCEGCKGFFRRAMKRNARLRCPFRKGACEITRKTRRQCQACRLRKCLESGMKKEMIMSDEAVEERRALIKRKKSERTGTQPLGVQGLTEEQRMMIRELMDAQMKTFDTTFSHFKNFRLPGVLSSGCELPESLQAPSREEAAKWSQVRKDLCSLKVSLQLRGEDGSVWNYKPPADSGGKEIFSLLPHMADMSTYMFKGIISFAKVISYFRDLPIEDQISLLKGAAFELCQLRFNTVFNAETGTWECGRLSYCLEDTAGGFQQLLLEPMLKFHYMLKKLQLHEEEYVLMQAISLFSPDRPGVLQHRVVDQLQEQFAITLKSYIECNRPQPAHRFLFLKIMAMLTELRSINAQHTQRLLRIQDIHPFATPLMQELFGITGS
F508del-CFTR, sequence (P13569 other isoform, or with tags, fused parts or gaps del F508-F508): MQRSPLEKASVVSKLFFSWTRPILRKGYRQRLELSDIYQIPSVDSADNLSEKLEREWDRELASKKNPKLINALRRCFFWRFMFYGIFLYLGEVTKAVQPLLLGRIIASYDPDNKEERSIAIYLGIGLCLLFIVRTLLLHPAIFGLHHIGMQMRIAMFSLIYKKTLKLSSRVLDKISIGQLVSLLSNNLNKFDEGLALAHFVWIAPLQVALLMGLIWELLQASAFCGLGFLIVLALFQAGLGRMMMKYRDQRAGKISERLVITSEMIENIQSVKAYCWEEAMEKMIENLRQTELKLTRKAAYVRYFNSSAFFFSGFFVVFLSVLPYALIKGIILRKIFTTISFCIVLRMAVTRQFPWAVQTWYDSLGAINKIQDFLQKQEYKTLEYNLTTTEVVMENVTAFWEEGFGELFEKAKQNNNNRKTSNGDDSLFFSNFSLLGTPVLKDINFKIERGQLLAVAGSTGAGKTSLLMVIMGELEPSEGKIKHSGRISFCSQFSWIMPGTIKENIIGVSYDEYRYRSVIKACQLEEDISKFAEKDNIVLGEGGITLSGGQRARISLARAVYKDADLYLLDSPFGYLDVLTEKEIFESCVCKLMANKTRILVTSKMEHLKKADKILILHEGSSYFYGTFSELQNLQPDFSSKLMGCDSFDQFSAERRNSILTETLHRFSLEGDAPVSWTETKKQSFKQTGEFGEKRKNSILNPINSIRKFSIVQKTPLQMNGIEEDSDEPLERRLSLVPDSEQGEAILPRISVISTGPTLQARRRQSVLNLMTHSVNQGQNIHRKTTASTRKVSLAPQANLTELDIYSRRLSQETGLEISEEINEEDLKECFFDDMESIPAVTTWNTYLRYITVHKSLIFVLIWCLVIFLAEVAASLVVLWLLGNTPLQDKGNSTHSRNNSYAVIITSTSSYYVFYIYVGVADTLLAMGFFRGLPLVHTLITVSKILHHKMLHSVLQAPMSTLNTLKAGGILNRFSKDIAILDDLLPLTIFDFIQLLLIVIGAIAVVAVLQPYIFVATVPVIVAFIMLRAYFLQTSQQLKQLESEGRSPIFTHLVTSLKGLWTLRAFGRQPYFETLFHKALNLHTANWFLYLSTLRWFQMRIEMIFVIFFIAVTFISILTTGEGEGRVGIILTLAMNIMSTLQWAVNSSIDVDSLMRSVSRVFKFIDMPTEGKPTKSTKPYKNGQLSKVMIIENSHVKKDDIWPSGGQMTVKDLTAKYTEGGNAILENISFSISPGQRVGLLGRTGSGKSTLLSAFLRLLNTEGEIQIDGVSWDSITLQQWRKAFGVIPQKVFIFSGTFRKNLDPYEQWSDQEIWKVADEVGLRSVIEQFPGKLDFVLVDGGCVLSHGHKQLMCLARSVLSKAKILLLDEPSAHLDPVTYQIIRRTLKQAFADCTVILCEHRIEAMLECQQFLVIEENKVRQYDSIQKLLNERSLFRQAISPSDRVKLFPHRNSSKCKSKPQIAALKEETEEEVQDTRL

Structure (SMILES) | EC50 [1, 3] [nM] | EC50 [1, 4] [nM] | PXR Max Induction (% of rifampicin) [2] | EC50 ([1]; Table 7, Compound 1 and metabolites, read-out: CFTRdF508 EC50) [nM]
Cc1cccc(S(=O)(=O)NC(=O)c2ccc(-n3ccc(OCC4(C(F)(F)F)CC4)n3)nc2N2C[C@@H](C)CC2(C)C)c1 [Comp. 28, N-(m-Tolylsulfonyl)-6-[3-[[1-(trifluoromethyl)cyclopropyl]methoxy]pyrazol-1-yl]-2-[(4S)-2,2,4-trimethylpyrrolidin-1-yl]pyridine-3-carboxamide] | < 100 | 30 | 17 % of rifampicin | –
C[C@@H]1CN(c2nc(-n3ccc(OCC4C(C)(C)C4(C)C)n3)ccc2C(=O)NS(=O)(=O)c2ccc(O)cc2)C(C)(C)C1 [Comp. 33, N-(4-Hydroxyphenyl)sulfonyl-6-[3-[(2,2,3,3-tetramethylcyclopropyl)methoxy]pyrazol-1-yl]-2-[(4S)-2,2,4-trimethylpyrrolidin-1-yl]pyridine-3-carboxamide] | < 100 | 80 | 0 % of rifampicin | –
C[C@@H]1CN(c2nc(-n3ccc(COCC4(C(F)(F)F)CC4)n3)ccc2C(=O)NS(=O)(=O)c2ccccc2)C(C)(C)C1 [Comp. 37, N-(Benzenesulfonyl)-6-[3-[[1-(trifluoromethyl)cyclopropyl]methoxymethyl]pyrazol-1-yl]-2-[(4S)-2,2,4-trimethylpyrrolidin-1-yl]pyridine-3-carboxamide] | < 100 | 70 | 8 % of rifampicin | –
C[C@@H]1CN(c2nc(-n3ccc(O[C@H]4C[C@H]5CC[C@@H]4C5)n3)ccc2C(=O)NS(=O)(=O)c2ccccc2)C(C)(C)C1 [Comp. 39, N-(benzenesulfonyl)-6-[3-[(1R,2S,4S)-norbornan-2-yl]oxypyrazol-1-yl]-2-[(4S)-2,2,4-trimethylpyrrolidin-1-yl]pyridine-3-carboxamide] | < 100 | 70 | 13 % of rifampicin | –
C[C@@H]1CN(c2nc(-n3ccc(OCC4C[C@@H]5CC[C@@H]4C5)n3)ccc2C(=O)NS(=O)(=O)c2ccccc2)C(C)(C)C1 (stereo partly drawn) [Comp. 40, N-(Benzenesulfonyl)-6-[3-[[(1R,4R)-norbornan-2-yl]methoxy]pyrazol-1-yl]-2-[(4S)-2,2,4-trimethylpyrrolidin-1-yl]pyridine-3-carboxamide] | < 100 | 80 | 2 % of rifampicin | –
C[C@@H]1CN(c2nc(-n3ccc(OCCC4(C(F)(F)F)CC4)n3)ccc2C(=O)NS(=O)(=O)c2ccccc2Cl)C(C)(C)C1 [Comp. 43, N-(2-chlorophenyl) sulfonyl-6-[3-[2-[1-(trifluoromethyl)cyclopropyl]ethoxy]pyrazol-1-yl]-2-[(4S)-2,2,4-trimethylpyrrolidin-1-yl]pyridine-3-carboxamide] | < 100 | 50 | 12 % of rifampicin | –
COc1cccc(S(=O)(=O)NC(=O)c2ccc(-n3ccc(OCC4(C(F)(F)F)CC4)n3)nc2N2C[C@@H](C)CC2(C)C)c1 [Comp. 49, N-(3-methoxyphenyl)sulfonyl-6-[3-[[1-(trifluoromethyl)cyclopropyl]methoxy]pyrazol-1-yl]-2-[(4S)-2,2,4-trimethylpyrrolidin-1-yl]pyridine-3-carboxamide] | < 100 | 20 | 19 % of rifampicin | –
C[C@@H]1CN(c2nc(-n3ccc(OCC4(C(F)(F)F)CC4)n3)ccc2C(=O)NS(=O)(=O)c2ccccc2F)C(C)(C)C1 [Comp. 50, N-(2-fluorophenyl)sulfonyl-6-[3-[[1-(trifluoromethyl)cyclopropyl]methoxy]pyrazol-1-yl]-2-[(4S)-2,2,4-trimethylpyrrolidin-1-yl]pyridine-3-carboxamide] | < 100 | 30 | 32 % of rifampicin | –
C[C@@H]1CN(c2nc(-n3ccc(OCC4(C(F)F)CC4)n3)ccc2C(=O)NS(=O)(=O)c2ccccc2)C(C)(C)C1 [Comp. 55, N-(Benzenesulfonyl)-6-[3-[[1-(difluoromethyl)cyclopropyl]methoxy]pyrazol-1-yl]-2-[(4S)-2,2,4-trimethylpyrrolidin-1-yl]pyridine-3-carboxamide] | < 100 | 50 | 22 % of rifampicin | –

Next, values leading:

EC50 [1, 3] [nM] | EC50 [1, 4] [nM] | PXR Max Induction (% of rifampicin) [2] | EC50 ([1]; Table 7, Compound 1 and metabolites, read-out: CFTRdF508 EC50) [nM] | Structure (SMILES)
< 100 | 80 | 2 % of rifampicin | – | COc1ccc(S(=O)(=O)NC(=O)c2ccc(-n3ccc(OCC4(C(F)(F)F)CC4)n3)nc2N2C[C@@H](C)CC2(C)C)c(C)c1 [Comp. 57, N-(4-Methoxy-2-methyl-phenyl)sulfonyl-6-[3-[[1-(trifluoromethyl)cyclopropyl]methoxy]pyrazol-1-yl]-2-[(4S)-2,2,4-trimethylpyrrolidin-1-yl]pyridine-3-carboxamide]
< 100 | 50 | 4 % of rifampicin | – | Cc1ccccc1S(=O)(=O)NC(=O)c1ccc(-n2ccc(OCC3(C(F)(F)F)CCC3)n2)nc1N1C[C@@H](C)CC1(C)C [Comp. 58, N-(o-Tolylsulfonyl)-6-[3-[[1-(trifluoromethyl)cyclobutyl]methoxy]pyrazol-1-yl]-2-[(4S)-2,2,4-trimethylpyrrolidin-1-yl]pyridine-3-carboxamide]
– | – | 3 % of rifampicin | – | C[C@@H]1CN(c2nc(-n3ccc(OCC(C)(C)C)n3)ccc2C(=O)NS(=O)(=O)c2ccc[nH]c2=O)C(C)(C)C1 [Comp. C, reference compound]
– | 400 | 20 % of rifampicin | – | C[C@@H]1CN(c2nc(-n3ccc(OCC4CC4)n3)ccc2C(=O)NS(=O)(=O)c2cccnc2N)C(C)(C)C1 [Comp. D, reference compound]
– | – | 10 % of rifampicin | – | C[C@@H]1CN(c2nc(-n3ccc(OCC4CCC4)n3)ccc2C(=O)NS(=O)(=O)c2cccnc2N)C(C)(C)C1 [Comp. E, reference compound]
< 100 | 20 | 4 % of rifampicin | – | Cc1ccccc1S(=O)(=O)NC(=O)c1ccc(-n2ccc(OCCC3(C(F)(F)F)CC3)n2)nc1N1C[C@@H](C)CC1(C)C [Compound 4, N-(o-Tolylsulfonyl)-6-[3-[2-[1-(trifluoromethyl)cyclopropyl]ethoxy]pyrazol-1-yl]-2-[(4S)-2,2,4-trimethylpyrrolidin-1-yl]pyridine-3-carboxamide]
100 to 1000 | 110 | 2 % of rifampicin | – | COc1ccc(S(=O)(=O)NC(=O)c2ccc(-n3ccc(OCC4(C(F)(F)F)CC4)n3)nc2N2C[C@@H](C)CC2(C)C)c(OC)c1 [Compound 13, N-(2,4-Dimethoxyphenyl)sulfonyl-6-[3-[[1-(trifluoromethyl)cyclopropyl]methoxy]pyrazol-1-yl]-2-[(4S)-2,2,4-trimethylpyrrolidin-1-yl]pyridine-3-carboxamide]
< 100 | 20 | 0 % of rifampicin | – | Cc1ccccc1S(=O)(=O)NC(=O)c1ccc(-n2ccc(OCC3C(C)(C)C3(C)C)n2)nc1N1C[C@@H](C)CC1(C)C [Compound 15, N-(o-Tolylsulfonyl)-6-[3-[(2,2,3,3-tetramethylcyclopropyl)methoxy]pyrazol-1-yl]-2-[(4S)-2,2,4-trimethylpyrrolidin-1-yl]pyridine-3-carboxamide]
< 100 | 30 | 7 % of rifampicin | 30 | C[C@@H]1CN(c2nc(-n3ccc(OCCC4(C(F)(F)F)CC4)n3)ccc2C(=O)NS(=O)(=O)c2ccc(O)cc2)C(C)(C)C1 [Compound 31, N-(4-Hydroxyphenyl)sulfonyl-6-[3-[2-[1-(trifluoromethyl)cyclopropyl]ethoxy]pyrazol-1-yl]-2-[(4S)-2,2,4-trimethylpyrrolidin-1-yl]pyridine-3-carboxamide]
